These results are taken from US8618088B2, “Methods of inhibiting choroidal neovascularization” (University of Pennsylvania, priority 2002, dated 2013).

In data set [1] the test system is choroidal neovascularization (CNV). Put plainly: Matrigel subretinal injection model of choroidal neovascularization (CNV), Vessel Paint staining and fluorescence microscopy. Type of data set: in vivo, Sprague-Dawley rats. The method, then: In search of effective treatments for CNV, a simple animal model was created by injecting 2-3µl Matrigel™ to the subretinal space of adult Sprague-Dawley rats using a 33-gauge needle connected to a 10µl Hamilton microsyringe. A week or more later the animals were sacrificed by CO2 inhalation and perfused with Vessel Paint, a new visualization technique recently developed in the inventors' lab that enables screening agents, including chemical compounds and proteins, for their potential in inhibiting CNV (Wen, ARVO Abstract, March 2002). Vessel Painting comprises the use of a solution containing DiI, followed by 4% paraformaldehyde solution, and is discussed further below.
The anterior portion of the eye, including the cornea and lens, was removed, and the eyecup was imbedded in 5% agarose. […] Eye sections were examined by fluorescence microscopy for neovascularization in the Matrigel™ deposit. […] Protein leakage of the new vessels was detected by assessing color change in the Matrigel™ deposit after intravenous injection of Evan's Blue dye. […]
Adult Sprague-Dawley rats (n=22) were injected with Matrigel™ to the subretinal space. […] Tissue sections were examined by fluorescence microscopy. […]
Eyes were collected 10 days after injection and blood vessels were stained with Vessel Paint. […] CNV was examined by fluorescence microscopy and CNV index of each eye was calculated.

Data set [2] can be described thus: Solubility in water. Type of data set: physicochemical.

For the compound `CO[C@H]1C[C@@H]2CC[C@@H](C)[C@@](O)(O2)C(=O)C(=O)N2CCCC[C@H]2C(=O)O[C@H]([C@H](C)C[C@@H]2CC[C@@H](O)[C@H](OC)C2)CC(=O)[C@H](C)/C=C(\C)[C@@H](O)[C@@H](OC)C(=O)[C@H](C)C[C@H](C)/C=C/C=C/C=C/1C` [rapamycin], the “effect on the normal vasculature of the eye” value in data set [1] (all experiments) is on record as “no discernable effect”. For the same compound, the solubility in water entry in data set [2] is reported as “not soluble in water”.
For the compound `C=CC[C@@H]1/C=C(\C)C[C@H](C)C[C@H](OC)[C@H]2O[C@@](O)(C(=O)C(=O)N3CCCC[C@H]3C(=O)O[C@H](/C(C)=C/[C@@H]3CC[C@@H](O)[C@H](OC)C3)[C@H](C)[C@@H](O)CC1=O)[C@H](C)C[C@@H]2OC` [FK506], the “CNV index (mean)” value in data set [1] (suspension in Matrigel 10 μg/μl, 1.2 μl subretinal, 10 days after injection) is recorded as “Mean = 12.67 (n = 6)”. Further, in data set [2], the solubility in water entry is “not water soluble”.
